Values after ≈ are worked out from the molar mass of the structure shown.
Experiments:
[1] = test system: Staphylococcus aureus V41; assay: MIC, standard agar-dilution assay; assay type: cell-based
[2] = test system: Staphylococcus aureus X400; assay: MIC, standard agar-dilution assay; assay type: cell-based
[3] = test system: Staphylococcus aureus S13E; assay type: cell-based; conditions: agar dilution
[4] = test system: Staphylococcus epidermidis EPI1; assay type: cell-based; conditions: agar dilution
[5] = test system: Streptococcus pyogenes C203; assay: MIC, standard agar-dilution assay; assay type: cell-based
[6] = test system: Streptococcus pneumoniae Park 1; assay type: cell-based; conditions: agar dilution
[7] = test system: Streptococcus faecium ATCC 9790; assay: MIC, standard agar-dilution assay; assay type: cell-based
[8] = test system: Streptococcus sp. group D 2041; assay: MIC, standard agar-dilution assay; assay type: cell-based
[9] = test system: Haemophilus influenzae C.L.; assay: MIC, standard agar-dilution assay; assay type: cell-based
[10] = test system: Haemophilus influenzae 76; assay: MIC, standard agar-dilution assay; assay type: cell-based
Escherichia coli N10 = assay: MIC, standard agar-dilution assay; assay type: cell-based
Escherichia coli EC14 = assay: MIC, standard agar-dilution assay; assay type: cell-based
Escherichia coli TEM = assay: MIC, standard agar-dilution assay; assay type: cell-based
[11] = test system: Klebsiella pneumoniae X26; assay: MIC, standard agar-dilution assay; assay type: cell-based
[12] = test system: Klebsiella pneumoniae X68; assay: MIC, standard agar-dilution assay; assay type: cell-based
[13] = test system: Klebsiella pneumoniae KAE; assay: MIC, standard agar-dilution assay; assay type: cell-based
[14] = test system: Staphylococcus aureus NRRL B313; conditions: agar dilution
Staphylococcus aureus = Staphylococcus aureus infection in mice; two doses, administered subcutaneously
Streptococcus pyogenes = Streptococcus pyogenes infection in mice; two doses, administered subcutaneously
Streptococcus pneumoniae = Streptococcus pneumoniae infection in mice; two doses, administered subcutaneously
[15] = test system: Staphylococcus epidermidis 222; assay: MIC, standard agar-dilution assay; assay type: cell-based

CCCCCCCCCCCCNC1(C)CC(OC2C(Oc3c4cc5cc3Oc3ccc(cc3Cl)C(O)C3NC(=O)C(NC(=O)C5NC(=O)C(CC(N)=O)NC(=O)C(NC(=O)C(CC(C)C)NC)C(O)c5ccc(c(Cl)c5)O4)c4ccc(O)c(c4)-c4c(O)cc(O)cc4C(C(=O)O)NC3=O)OC(CO)C(O)C2O)OC(C)C1O (stereo not shown) [Compound 1, N^van --(n-dodecyl)vancomycin]
MIC [1]: 0.25 µg/mL (≈ 0.155 µM) | MIC [2]: 0.25 µg/mL (≈ 0.155 µM) | MIC [3]: 0.25 µg/mL (≈ 0.155 µM) | MIC [4]: 0.5 µg/mL (≈ 0.309 µM) | MIC [5]: 0.125 µg/mL (≈ 0.0773 µM) | MIC [6]: 0.25 µg/mL (≈ 0.155 µM) | MIC [7]: 0.25 µg/mL (≈ 0.155 µM) | MIC [8]: 0.125 µg/mL (≈ 0.0773 µM) | MIC [9]: > 128 µg/mL | MIC [10]: > 128 µg/mL | MIC (Escherichia coli N10): > 128 µg/mL | MIC (Escherichia coli EC14): > 128 µg/mL | MIC (Escherichia coli TEM): > 128 µg/mL | MIC [11]: > 128 µg/mL | MIC [12]: > 128 µg/mL | MIC [13]: > 128 µg/mL | MIC [14]: 0.25 µg/mL (≈ 0.155 µM) | ED50 (Staphylococcus aureus): > 5 mg/kg/2 | ED50 (Streptococcus pyogenes): 0.31 mg/kg/2 | ED50 (Streptococcus pneumoniae): 0.42 mg/kg/2

CCCCCCCCNC1(C)CC(OC2C(Oc3c4cc5cc3Oc3ccc(cc3Cl)C(O)C3NC(=O)C(NC(=O)C5NC(=O)C(CC(N)=O)NC(=O)C(NC(=O)C(CC(C)C)NC)C(O)c5ccc(c(Cl)c5)O4)c4ccc(O)c(c4)-c4c(O)cc(O)cc4C(C(=O)O)NC3=O)OC(CO)C(O)C2O)OC(C)C1O (stereo not shown) [Compound 7, N^van --(n-octyl)vancomycin]
MIC [1]: 0.25 µg/mL (≈ 0.16 µM) | MIC [2]: 0.25 µg/mL (≈ 0.16 µM) | MIC [3]: 0.25 µg/mL (≈ 0.16 µM) | MIC [4]: 1 µg/mL (≈ 0.64 µM) | MIC [15]: 0.5 µg/mL (≈ 0.32 µM) | MIC [5]: 0.125 µg/mL (≈ 0.0801 µM) | MIC [7]: 0.25 µg/mL (≈ 0.16 µM) | MIC [8]: 0.5 µg/mL (≈ 0.32 µM) | MIC [9]: 32 µg/mL (≈ 20.5 µM) | MIC [10]: 32 µg/mL (≈ 20.5 µM) | MIC (Escherichia coli N10): > 128 µg/mL | MIC (Escherichia coli EC14): > 128 µg/mL | MIC (Escherichia coli TEM): > 128 µg/mL | MIC [11]: > 128 µg/mL | MIC [12]: > 128 µg/mL | MIC [13]: > 128 µg/mL | MIC [14]: 0.25 µg/mL (≈ 0.16 µM) | ED50 (Staphylococcus aureus): 3.4 mg/kg/2 | ED50 (Streptococcus pyogenes): 0.98 mg/kg/2 | ED50 (Streptococcus pneumoniae): 0.44 mg/kg/2

CCCNC1(C)CC(OC2C(Oc3c4cc5cc3Oc3ccc(cc3Cl)C(O)C3NC(=O)C(NC(=O)C5NC(=O)C(CC(N)=O)NC(=O)C(NC(=O)C(CC(C)C)NC)C(O)c5ccc(c(Cl)c5)O4)c4ccc(O)c(c4)-c4c(O)cc(O)cc4C(C(=O)O)NC3=O)OC(CO)C(O)C2O)OC(C)C1O (stereo not shown) [Compound 20, N^van --(n-propyl)vancomycin]
MIC [1]: 1 µg/mL (≈ 0.671 µM) | MIC [2]: 1 µg/mL (≈ 0.671 µM) | MIC [3]: 1 µg/mL (≈ 0.671 µM) | MIC [4]: 4 µg/mL (≈ 2.68 µM) | MIC [15]: 1 µg/mL (≈ 0.671 µM) | MIC [5]: 0.5 µg/mL (≈ 0.335 µM) | MIC [6]: 0.5 µg/mL (≈ 0.335 µM) | MIC [7]: 1 µg/mL (≈ 0.671 µM) | MIC [8]: 1 µg/mL (≈ 0.671 µM) | MIC [9]: 128 µg/mL (≈ 85.8 µM) | MIC [10]: 128 µg/mL (≈ 85.8 µM) | MIC (Escherichia coli N10): > 128 µg/mL | MIC (Escherichia coli EC14): > 128 µg/mL | MIC (Escherichia coli TEM): > 128 µg/mL | MIC [11]: > 128 µg/mL | MIC [12]: > 128 µg/mL | MIC [13]: > 128 µg/mL | MIC [14]: 1 µg/mL (≈ 0.671 µM)

CCCNC1(C)CC(OC2C(Oc3c4cc5cc3Oc3ccc(cc3Cl)C(O)C(NC(=O)C(CC(C)C)N(C)CCC)C(=O)NC(CC(N)=O)C(=O)NC5C(=O)NC3C(=O)NC(C(=O)NC(C(=O)O)c5cc(O)cc(O)c5-c5cc3ccc5O)C(O)c3ccc(c(Cl)c3)O4)OC(CO)C(O)C2O)OC(C)C1O (stereo not shown) [Compound 22, N^van, N^leu --di(n-propyl)vancomycin]
MIC [1]: 2 µg/mL (≈ 1.3 µM) | MIC [2]: 2 µg/mL (≈ 1.3 µM) | MIC [3]: 2 µg/mL (≈ 1.3 µM) | MIC [4]: 4 µg/mL (≈ 2.61 µM) | MIC [15]: 4 µg/mL (≈ 2.61 µM) | MIC [5]: 2 µg/mL (≈ 1.3 µM) | MIC [6]: 1 µg/mL (≈ 0.652 µM) | MIC [7]: 2 µg/mL (≈ 1.3 µM) | MIC [8]: 8 µg/mL (≈ 5.22 µM) | MIC [9]: > 128 µg/mL | MIC [10]: 128 µg/mL (≈ 83.5 µM) | MIC (Escherichia coli N10): > 128 µg/mL | MIC (Escherichia coli EC14): > 128 µg/mL | MIC (Escherichia coli TEM): > 128 µg/mL | MIC [11]: > 128 µg/mL | MIC [12]: > 128 µg/mL | MIC [13]: > 128 µg/mL | MIC [14]: 2 µg/mL (≈ 1.3 µM)

CCNC1(C)CC(OC2C(Oc3c4cc5cc3Oc3ccc(cc3Cl)C(O)C(NC(=O)C(CC(C)C)N(C)CC)C(=O)NC(CC(N)=O)C(=O)NC5C(=O)NC3C(=O)NC(C(=O)NC(C(=O)O)c5cc(O)cc(O)c5-c5cc3ccc5O)C(O)c3ccc(c(Cl)c3)O4)OC(CO)C(O)C2O)OC(C)C1O (stereo not shown) [Compound 24, N^van, N^leu --diethylvancomycin]
MIC [1]: 1 µg/mL (≈ 0.664 µM) | MIC [2]: 2 µg/mL (≈ 1.33 µM) | MIC [3]: 1 µg/mL (≈ 0.664 µM) | MIC [4]: 2 µg/mL (≈ 1.33 µM) | MIC [15]: 2 µg/mL (≈ 1.33 µM) | MIC [5]: 1 µg/mL (≈ 0.664 µM) | MIC [6]: 1 µg/mL (≈ 0.664 µM) | MIC [7]: 2 µg/mL (≈ 1.33 µM) | MIC [8]: 4 µg/mL (≈ 2.66 µM) | MIC [9]: < 128 µg/mL | MIC [10]: 128 µg/mL (≈ 85 µM) | MIC (Escherichia coli N10): > 128 µg/mL | MIC (Escherichia coli EC14): > 128 µg/mL | MIC (Escherichia coli TEM): > 128 µg/mL | MIC [11]: > 128 µg/mL | MIC [12]: > 128 µg/mL | MIC [13]: > 128 µg/mL | MIC [14]: 1 µg/mL (≈ 0.664 µM)

CCCCCCCCCCNC1(C)CC(OC2C(Oc3c4cc5cc3Oc3ccc(cc3Cl)C(O)C3NC(=O)C(NC(=O)C5NC(=O)C(CC(N)=O)NC(=O)C(NC(=O)C(N)CC(C)C)C(O)c5ccc(c(Cl)c5)O4)c4ccc(O)c(c4)-c4c(O)cc(O)cc4C(C(=O)O)NC3=O)OC(CO)C(O)C2O)OC(C)C1O (stereo not shown) [Compound 26, N^van --(n-decyl)-A51568A]
MIC [1]: 0.25 µg/mL (≈ 0.159 µM) | MIC [2]: 0.25 µg/mL (≈ 0.159 µM) | MIC [3]: 0.25 µg/mL (≈ 0.159 µM) | MIC [4]: 0.5 µg/mL (≈ 0.317 µM) | MIC [15]: 0.25 µg/mL (≈ 0.159 µM) | MIC [5]: 0.25 µg/mL (≈ 0.159 µM) | MIC [6]: 0.25 µg/mL (≈ 0.159 µM) | MIC [7]: 0.5 µg/mL (≈ 0.317 µM) | MIC [8]: 0.5 µg/mL (≈ 0.317 µM) | MIC [9]: 128 µg/mL (≈ 81.2 µM) | MIC [10]: 128 µg/mL (≈ 81.2 µM) | MIC (Escherichia coli N10): > 128 µg/mL | MIC (Escherichia coli EC14): > 128 µg/mL | MIC (Escherichia coli TEM): > 128 µg/mL | MIC [11]: > 128 µg/mL | MIC [12]: > 128 µg/mL | MIC [13]: > 128 µg/mL | MIC [14]: 0.25 µg/mL (≈ 0.159 µM)

CCCCCCCCCCNC1(C)CC(OC2C(Oc3c4cc5cc3Oc3ccc(cc3Cl)C(O)C(NC(=O)C(CC(C)C)[N+](C)(C)C)C(=O)NC(CC(N)=O)C(=O)NC5C(=O)NC3C(=O)NC(C(=O)NC(C(=O)[O-])c5cc(O)cc(O)c5-c5cc3ccc5O)C(O)c3ccc(c(Cl)c3)O4)OC(CO)C(O)C2O)OC(C)C1O (stereo not shown) [Compound 124, N^van --(n-decyl)-M43A]
MIC [1]: 0.5 µg/mL (≈ 0.309 µM) | MIC [2]: 0.5 µg/mL (≈ 0.309 µM) | MIC [3]: 0.5 µg/mL (≈ 0.309 µM) | MIC [4]: 1 µg/mL (≈ 0.618 µM) | MIC [15]: 0.5 µg/mL (≈ 0.309 µM) | MIC [5]: 0.25 µg/mL (≈ 0.155 µM) | MIC [6]: 0.5 µg/mL (≈ 0.309 µM) | MIC [7]: 0.5 µg/mL (≈ 0.309 µM) | MIC [8]: 0.5 µg/mL (≈ 0.309 µM) | MIC [9]: > 64 µg/mL | MIC [10]: > 64 µg/mL | MIC (Escherichia coli N10): > 64 µg/mL | MIC (Escherichia coli EC14): 64 µg/mL (≈ 39.6 µM) | MIC (Escherichia coli TEM): > 64 µg/mL | MIC [11]: > 64 µg/mL | MIC [12]: > 64 µg/mL | MIC [13]: > 64 µg/mL | MIC [14]: 0.5 µg/mL (≈ 0.309 µM)
